According to US20090074885A1, “Reversible Hydrophobic Modification of Drugs for Improved Delivery to Cells” (Roche Madison Inc., priority 2003, published 2009):

How the values were obtained:
cells [1] = test: Testing of mixing chamber: PI uptake in cells; format: cell-based; settings: PI in DMF and isotonic glucose through mixing chamber
Text: Development of a Mixing Chamber. Due to the instability of the RRH-PI prodrugs in water, it was necessary to dissolve them in a small amount of pharmaceutically acceptable organic solvent (OS) and mix them with an aqueous solution immediately prior to delivery. Rapid and efficient mixing was critical for optimum delivery and minimalization of toxicity due to the organic solvent. A passive mixing chamber with colliding flows was utilized to mix the drug/RRH-prodrug (dissolved in a carrier solvent such as an organic solvent) with an aqueous solution immediately prior use. Two syringe pumps (Harvard Pumps, PHD 2000) were utilized to deliver the solutions to the mixing chamber. Typically mixtures were 1:10 by volume with 0.67 μl of PI or RRH-PI/OS solution (7.48 mM) diluted with 6.7 μl of isotonic glucose (ITG), buffer, or media per sec, for a total delivery volume of 220 μl (0.150 μmol of PI or RRH-PI) over 30 sec (final organic solvent concentration of 9.1% by vol.).
The mixing chamber (FIG. 3) was constructed from 18 G stainless steel tubing (38 mm in length) by drilling a 0.2 mm hole at a 45 degree angle in the tubing wall and then inserting 30 G stainless steel tubing. The 30 G stainless tubing was angled and advanced into the 18 G tubing so as to be centered within the larger tubing and then soldered in place. […]

SK-OV-3 ovarian tumors = test: Intraperitoneal perfusion chemotherapy (IPPC) in SK-OV-3 mouse model; format: in vivo
Experimental: In a separate experiment, ovarian cancer development was monitored until signs of ascitis (4-5 wks). At this time, a test IPPC injection was conducted with C12PMMA-PI by adapting methodology typically used for peritoneal perfusion. Briefly, two 23 G Abbocath-T effluent catheters with multiple perforations were inserted into the peritoneal cavity and advanced to the region of the ovaries on both sides of the vertebra. The ascitic fluid was slowly aspirated with minimal negative pressure. Then an additional 23 G perforated catheter was inserted into abdomen and positioned on top of abdominal organs. 1 mL of drug/DMF/ITG solution was infused over 1 min, followed by repeated gentle massage. 5-7 min post administration, peritoneal fluid was again aspirated, and the peritoneal cavity was perfused with 10 mL of PBS via the top catheter, together with simultaneous aspiration via the lower two catheters. Special care was taken to avoid elevated abdominal pressure during the procedure. […] Confocal microscopy indicated a similar staining pattern as observed previously, with strong propidium iodide nuclear labeling of all of the outer cells exposed to peritoneal cavity, including ovarian tumors. […] All cells exposed to peritoneal cavity and thereby to the prodrug solution indicated prodrug uptake and staining, including: mesentery cells, outer layer of cells of abdominal organs, and disseminated peritoneal ovarian tumors. The tumor lesions still appeared to be more susceptible to drug uptake, indicating both greater tissue penetration and intense PI^+-staining as compared to normal abdominal tissue, with the exception of the mesentery which was also was heavily PI^+.

MC38 tumor = test: Survival after LABI in MC38 tumor bearing mice; format: in vivo, C57BL mice; settings: 0.150 μmol by LABI, compared to hydrolyzed C12PMMA-PI
Experimental: FIG. 13. Days of survival following LABI delivery of C12PMMA-PI (III) or hydrolyzed C12PMMA-PI to C57BL mice. Following three weeks of MC38 tumor development C12PMMA-PI or Hydrolyzed C12PMMA-PI (0.150 μmol in 20 μl DMSO, 200 μl ITG) were delivered by LABI. The mouse abdomen was closed 4 min after drug treatment and the animals were monitored for survival time.
In vivo antitumor effect following a liver arterial bolus injection with a RRH-PI to MC 38 tumor bearing mice. LABI was conducted as previously described in order to monitor the antitumor effect of an RRH-PI prodrug. In the experiment, III (n=11) or hydrolyzed C12PMMA-PI (n=9) were injected as previously described, the mouse abdomen was closed after drug treatment and the animals were monitored for survival time. Statistical analysis was conducted using a t-test (two tailed distribution and two sample—unequal variance, Excel).

Hepa 1-6 cells = test: Calcein AM live cell marker after prodrug treatment; format: cell-based, mouse; settings: following treatment with prodrug
Experimental: (§1) In Vitro cellular uptake of PI, RRH-PI compounds, and IV evaluated by fluorescence measurements. PI and the RRH-prodrugs were tested for cellular uptake on several cell lines which included B16 (murine melanoma), Hepa 1-6 (mouse hepatoma), SK-OV-3 (also SKOV-3, human ovarian carcinoma), OVCAR-3 (human ovarian carcinoma), Jurkat (human T-lymphocyte), 293 (human embryonic kidney), and MC38 (mouse colon carcinoma) cells. Adherent cells were plated at 2.5×10^5 cells/well on 6-well plates 24 h prior to testing. The growth media was removed from individual wells and the drug/prodrug was immediately added to the well with the mixing chamber. Final drug/prodrug concentrations were 0.150 μmol in 220 μl total volume (20 μl OS, 200 μl ITG). After 30 sec the drug solution was removed (aspirated) and 2 ml complete media was added to the cells. […] Fluorescent microscopy studies were conducted with a three laser LSM 510 confocal microscope, an Axiovert S100 fluorescent microscope, or an Axioplan2 fluorescent microscope (all Zeiss) equipped with filter sets for the rhodamine fluorescence channel (λex=BP 450/12, λem=LP 590 nm filter set) and the fluorescein fluorescent channel (λex=BP 546/90, λem=LP 515 nm filter set). […]

cells [2] = test: SYTOX Green dead cell indicator after prodrug treatment; format: cell-based; settings: following treatment with prodrug
Experimental: as §1

## CC[N+](C)(CC)CCC[n+]1c(-c2ccccc2)c2cc(N)ccc2c2ccc(N)cc21.[I-].[I-] [PI, Propidium iodide, reference compound]
Cells [1]
  PI uptake in cells: very little PI uptake in cells

## CCCCCCCCCCCCNC(=O)CCC(=CCC(=O)O)C(=O)Nc1ccc2c(c1)c(-c1ccccc1)[n+](CCC[N+](C)(CC)CC)c1cc(NC(=O)C(=CCC(=O)O)CCC(=O)NCCCCCCCCCCCC)ccc21.[I-].[I-] [III, 3,8-bis-[2-(2 carboxyethylidene)-4-(dodecarbamoyl)-1-oxo-butylamine] 5-(3,3-diethyl-3-methylammoniumpropyl) 6-phenyl phenanthridinium diiodide]
SK-OV-3 ovarian tumors
  labeling of microtumors (0.1-1 mm): heavily labeled throughout the tumor
SK-OV-3 ovarian tumors; 4-5 wks after inoculation
  depth of labeling of large tumors (5-7 mm): about 500 microns
SK-OV-3 ovarian tumors; sacrificed 3-5 h later
  survival of the perfusion procedure: All animals survived the perfusion well
MC38 tumor
  survival: increased survival

## CCCCCCCCCCCCCCCCCC[Si](C)(C)Nc1ccc2c(c1)c(-c1ccccc1)[n+](CCC[N+](C)(CC)CC)c1cc(N[Si](C)(C)CCCCCCCCCCCCCCCCCC)ccc21.[I-].[I-] [II, 3,8-bis[((dimethyl)octadecylsilazyl)amine] 5-(3,3-diethyl-3-methylammoniumpropyl) 6-phenyl phenanthridinium diiodide]
Hepa 1-6 cells
  cells both PI and calcein positive: approximately 86%
Cells [2]
  cells both PI-positive and SYTOX Green positive: less than 5%
